Measurements from US10858362B2, “Imidazopyrazinones as PDE1 inhibitors” (H. Lundbeck A/S, priority 2015, dated 2020).

Columns and labels:
Format in all cases: biochemical
[1] = target: PDE1A (Homo sapiens (Human), UniProt P54750); assay: PDE1 inhibition assay, PDE1A; settings: for IC50: 15 nM tritium labelled cAMP; for inhibition at 1 µM: read-out: PDE1A, % inhibition (at 1 μM); for inhibition at 10 µM: read-out: PDE1A, % inhibition (at 10 μM)
Description: (§1) Reactions were initiated by addition of the cyclic nucleotide substrate, and reactions were allowed to proceed for 1 h at room temperature before being terminated through mixing with 20 μL (0.2 mg) yttrium silicate SPA beads (PerkinElmer).

[2] = target: PDE1B (Homo sapiens (Human), UniProt Q01064); assay: PDE1 inhibition assay, PDE1B; settings: for IC50: 15 nM tritium labelled cAMP
Description: as §1, with “(PerkinElmer). The beads were allowed to settle for 1 h in the dark before the plates were counted in a Wallac 1450 Microbeta counter.” for “(PerkinElmer).”

[3] = target: PDE1C (Homo sapiens (Human), UniProt Q14123); assay: PDE1 inhibition assay, PDE1C; settings: for IC50: 15 nM tritium labelled cAMP; for inhibition at 1 µM: read-out: PDE1C, % inhibition (at 1 μM)
Description: as §1, with “(PerkinElmer). The beads were allowed to settle for 1 h in the dark before the plates were counted in a Wallac 1450 Microbeta counter.” for “(PerkinElmer).”

[4] = target: PDE9 (Homo sapiens (Human), UniProt O76083); assay: PDE9 inhibition assay
Method in brief: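 SPA radiometric read-out: after a 1 hr reaction, yttrium silicate beads were added, allowed to settle 1 hr in the dark and counted. Substrate 10 nM ^3H-cAMP, PDE9 amount giving 20-25% conversion, buffer 50 mM HEPES pH 7.6/10 mM MgCl2/0.02% Tween20, varying inhibitor amounts.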

Chain of PDE1C (Q14123 whole entry): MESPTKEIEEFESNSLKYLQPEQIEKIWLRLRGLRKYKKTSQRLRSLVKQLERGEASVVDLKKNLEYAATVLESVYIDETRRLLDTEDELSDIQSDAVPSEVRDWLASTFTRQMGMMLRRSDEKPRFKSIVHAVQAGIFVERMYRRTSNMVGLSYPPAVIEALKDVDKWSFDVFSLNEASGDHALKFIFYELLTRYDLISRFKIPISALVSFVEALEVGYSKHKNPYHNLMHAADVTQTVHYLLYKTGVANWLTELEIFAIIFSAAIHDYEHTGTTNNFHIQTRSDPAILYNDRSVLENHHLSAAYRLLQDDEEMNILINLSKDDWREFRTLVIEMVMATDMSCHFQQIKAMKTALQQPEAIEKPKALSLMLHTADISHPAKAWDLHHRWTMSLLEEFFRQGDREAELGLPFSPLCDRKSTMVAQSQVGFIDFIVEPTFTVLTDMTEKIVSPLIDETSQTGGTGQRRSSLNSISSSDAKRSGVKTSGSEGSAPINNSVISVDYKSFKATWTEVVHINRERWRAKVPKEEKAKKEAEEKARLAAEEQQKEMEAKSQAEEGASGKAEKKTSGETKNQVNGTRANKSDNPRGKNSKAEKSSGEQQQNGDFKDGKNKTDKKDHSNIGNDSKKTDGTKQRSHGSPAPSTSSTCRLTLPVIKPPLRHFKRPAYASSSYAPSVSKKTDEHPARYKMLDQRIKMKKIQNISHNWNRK
Chain of PDE1B (Q01064 whole entry): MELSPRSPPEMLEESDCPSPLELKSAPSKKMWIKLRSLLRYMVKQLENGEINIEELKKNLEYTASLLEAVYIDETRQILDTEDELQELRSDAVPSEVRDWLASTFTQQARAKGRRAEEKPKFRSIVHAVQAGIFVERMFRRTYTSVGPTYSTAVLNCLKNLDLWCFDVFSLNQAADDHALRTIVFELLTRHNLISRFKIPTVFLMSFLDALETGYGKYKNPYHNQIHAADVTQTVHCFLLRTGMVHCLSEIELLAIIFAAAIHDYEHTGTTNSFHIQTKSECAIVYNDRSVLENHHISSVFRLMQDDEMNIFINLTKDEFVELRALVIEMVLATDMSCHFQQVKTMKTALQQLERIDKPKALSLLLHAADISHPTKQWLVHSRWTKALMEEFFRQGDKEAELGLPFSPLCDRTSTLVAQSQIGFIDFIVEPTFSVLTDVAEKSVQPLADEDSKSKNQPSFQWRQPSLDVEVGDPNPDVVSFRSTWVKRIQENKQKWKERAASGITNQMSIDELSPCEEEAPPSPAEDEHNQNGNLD
Chain of PDE9 (O76083 whole entry): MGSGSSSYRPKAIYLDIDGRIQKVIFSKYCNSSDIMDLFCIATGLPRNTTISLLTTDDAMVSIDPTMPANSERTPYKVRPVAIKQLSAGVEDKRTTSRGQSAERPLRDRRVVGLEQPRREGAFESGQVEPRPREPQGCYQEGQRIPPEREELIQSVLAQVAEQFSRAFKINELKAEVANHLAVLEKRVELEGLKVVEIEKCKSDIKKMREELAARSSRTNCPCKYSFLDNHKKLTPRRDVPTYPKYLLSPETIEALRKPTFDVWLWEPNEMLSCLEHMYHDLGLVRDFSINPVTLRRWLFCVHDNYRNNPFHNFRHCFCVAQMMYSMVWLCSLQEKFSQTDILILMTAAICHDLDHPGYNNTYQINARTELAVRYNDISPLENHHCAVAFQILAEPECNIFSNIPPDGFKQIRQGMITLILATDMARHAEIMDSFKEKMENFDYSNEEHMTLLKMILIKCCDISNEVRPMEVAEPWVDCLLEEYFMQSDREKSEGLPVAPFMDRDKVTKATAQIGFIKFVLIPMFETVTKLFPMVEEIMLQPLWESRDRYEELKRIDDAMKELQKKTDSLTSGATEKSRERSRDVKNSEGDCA
Chain of PDE1A (P54750 whole entry): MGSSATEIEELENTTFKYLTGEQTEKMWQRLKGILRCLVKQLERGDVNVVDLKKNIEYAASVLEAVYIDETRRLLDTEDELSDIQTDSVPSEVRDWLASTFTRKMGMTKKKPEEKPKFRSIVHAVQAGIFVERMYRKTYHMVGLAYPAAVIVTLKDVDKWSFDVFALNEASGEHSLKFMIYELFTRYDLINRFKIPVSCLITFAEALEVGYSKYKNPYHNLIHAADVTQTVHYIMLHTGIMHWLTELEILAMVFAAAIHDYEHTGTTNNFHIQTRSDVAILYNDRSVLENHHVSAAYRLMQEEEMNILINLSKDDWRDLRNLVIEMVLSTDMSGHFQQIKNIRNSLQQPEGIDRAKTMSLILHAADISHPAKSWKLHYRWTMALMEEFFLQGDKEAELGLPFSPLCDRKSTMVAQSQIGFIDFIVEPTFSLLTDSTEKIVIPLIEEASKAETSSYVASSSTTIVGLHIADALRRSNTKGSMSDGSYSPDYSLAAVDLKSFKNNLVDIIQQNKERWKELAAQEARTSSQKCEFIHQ

In the case of `COc1ccc(Cn2c(C)cn3c(C4CCOCC4)ncc3c2=O)cc1` [Example 23, 7-(4-Methoxybenzyl)-6-methyl-3-(tetrahydro-2H-pyran-4-yl)imidazo[1,5-a]pyrazin-8(7H)-one], the IC50 [1] is reported as 14 nM, the IC50 [2] is reported as 12 nM and the IC50 [3] is reported as 19 nM. It also gave an inhibition at 10 µM [4] of 16%.
Compound `Cc1cn2c(C3CCOCC3)ncc2c(=O)n1Cc1ccc(F)cc1` [Example 24, 7-(4-Fluorobenzyl)-6-methyl-3-(tetrahydro-2H-pyran-4-yl)imidazo[1,5-a]pyrazin-8(7H)-one] has an IC50 [1] of 38 nM, an IC50 [2] of 43 nM and an IC50 [3] of 17 nM. The inhibition at 10 µM [4] was -1%.
`CO[C@H]1CC[C@H](Cn2c(C)cn3c(C4CCOCC4)ncc3c2=O)CC1` [Example 68, 7-(((trans)-4-methoxycyclohexyl)methyl)-6-methyl-3-(tetrahydro-2H-pyran-4-yl)imidazo[1,5-a]pyrazin-8(7H)-one] showed an IC50 [1] of 323 nM, an IC50 [2] of 127 nM and an IC50 [3] of 1860 nM. It also gave an inhibition at 10 µM [4] of 5%.
`O=c1c2cnc(C3CCOCC3)n2ccn1Cc1cccc(F)c1` [Example 9, 7-(3-Fluorobenzyl)-3-(tetrahydro-2H-pyran-4-yl)imidazo[1,5-a]pyrazin-8(7H)-one] gave an inhibition at 2 µM ([1]; read-out: PDE1A, % inhibition (at 2 μM)) of 68%, an inhibition at 2 µM ([2]; read-out: PDE1B, % inhibition (at 2 μM)) of 90% and an IC50 [3] of 170 nM. The inhibition at 10 µM [4] was 2%.
For `Cc1cn2c(C3CC3(F)F)ncc2c(=O)n1Cc1cccc(F)c1` (centres unmarked) [Example 34, 3-(2,2-difluorocyclopropyl)-7-(3-fluorobenzyl)-6-methylimidazo[1,5-a]pyrazin-8(7H)-one], the IC50 [1] was 331 nM, the IC50 [2] was 359 nM and the IC50 [3] was 93 nM. It also gave an inhibition at 10 µM [4] of 0%.
For `COc1ccc(Cn2c(C)cn3c(C4(C)CNC(=O)C4)ncc3c2=O)cc1` (centres unmarked) [Example 75, 7-(4-methoxybenzyl)-6-methyl-3-(3-methyl-5-oxopyrrolidin-3-yl)imidazo[1,5-a]pyrazin-8(7H)-one], the IC50 [1] was 236 nM, the IC50 [2] was 297 nM and the IC50 [3] was 360 nM. For the same compound, the inhibition at 10 µM [4] was 8%.
With `Cc1ccccc1Cn1c(C)cn2c(C3CCOCC3)ncc2c1=O` [Example 21, 6-Methyl-7-(2-methylbenzyl)-3-(tetrahydro-2H-pyran-4-yl)imidazo[1,5-a]pyrazin-8(7H)-one] the IC50 [1] was 242 nM, the IC50 [2] was 195 nM and the IC50 [3] was 30 nM. For the same compound, the inhibition at 10 µM [4] was -14%.
`Cc1cn2c(C3CCOCC3)ncc2c(=O)n1Cc1cccc(Cl)c1` [Example 18, 7-(3-Chlorobenzyl)-6-methyl-3-(tetrahydro-2H-pyran-4-yl)imidazo[1,5-a]pyrazin-8(7H)-one] was tested, and the IC50 [1] was 57 nM, the IC50 [2] was 49 nM and the IC50 [3] was 8 nM. The inhibition at 10 µM [4] was 31%.
`Cc1cn2c([C@@H]3CCOC3)ncc2c(=O)n1Cc1cccc(F)c1` (single isomer, unassigned; isomer 1) [31, isomer 1] gave an IC50 [1] of 337 nM, an IC50 [2] of 106 nM and an IC50 [3] of 27 nM. The “% inhibition of PDE9 at 10 microM” value [4] was −1%.
In the case of `CCc1ccccc1Cn1c(C)cn2c(C3CCOCC3)ncc2c1=O` [Example 49, 7-(2-ethylbenzyl)-6-methyl-3-(tetrahydro-2H-pyran-4-yl)imidazo[1,5-a]pyrazin-8(7H)-one], the “percent inhibition of PDE1A at 2 µM” value ([1]; at 2 μM, % sign not given) is reported as 44, the inhibition at 1 µM ([2]; read-out: PDE1B, % inhibition (at 1 μM)) is reported as 60% and the IC50 [3] is reported as 173 nM. It also gave an inhibition at 10 µM [4] of 1%.
`Cc1cn2c(N3CCC4OCCC43)ncc2c(=O)n1Cc1cccc(F)c1` (single isomer, unassigned; isomer 1) [99, isomer 1] showed an IC50 [1] of 241 nM, an IC50 [2] of 134 nM and an IC50 [3] of 27 nM. For the same compound, the “% inhibition of PDE9 at 10 microM” value [4] was 9%.
`Cc1cn2c([C@@H]3C[C@H]3C)ncc2c(=O)n1Cc1cccc(F)c1` (single isomer, unassigned; isomer 2) [35, isomer 2] gave an IC50 [1] of 364 nM, an IC50 [2] of 166 nM and an IC50 [3] of 41 nM. The “% inhibition of PDE9 at 10 microM” value [4] was 15%.
`CCCn1c(C)cn2c(C3CCOCC3)ncc2c1=O` [Example 60, 6-methyl-7-propyl-3-(tetrahydro-2H-pyran-4-yl)imidazo[1,5-a]pyrazin-8(7H)-one] gave an IC50 [1] of 810 nM, an IC50 [2] of 221 nM and an IC50 [3] of 423 nM. It also gave an inhibition at 10 µM [4] of -13%.
`Cc1cn2c(C3CCOCC3)ncc2c(=O)n1Cc1ccc(OCC2CC2)cc1` [Example 42, 7-(4-(cyclopropylmethoxy)benzyl)-6-methyl-3-(tetrahydro-2H-pyran-4-yl)imidazo[1,5-a]pyrazin-8(7H)-one] showed an inhibition at 1 µM [1] of 50%, an IC50 [2] of 155 nM and an inhibition at 1 µM [3] of 55%. For the same compound, the inhibition at 10 µM [4] was 15%.
Compound `Cc1cn2c(C3CCOCC3)ncc2c(=O)n1Cc1ccccc1C#N` [Example 64, 2-((6-methyl-8-oxo-3-(tetrahydro-2H-pyran-4-yl)imidazo[1,5-a]pyrazin-7(8H)-yl)methyl)benzonitrile] has an IC50 [1] of 624 nM, an IC50 [2] of 528 nM and an IC50 [3] of 103 nM. The inhibition at 10 µM [4] was 11%.
Compound `Cc1cn2c(C3CCOCC3)ncc2c(=O)n1Cc1cscn1` [Example 80, 6-methyl-3-(tetrahydro-2H-pyran-4-yl)-7-(thiazol-4-ylmethyl)imidazo[1,5-a]pyrazin-8(7H)-one] has an inhibition at 10 µM [1] of 72%, an IC50 [2] of 1310 nM and an IC50 [3] of 496 nM. For the same compound, the inhibition at 10 µM [4] was 18%.
`COc1ccc(Cn2c(C)cn3c(C4CCOCC4)ncc3c2=O)cn1` [Example 57, 7-((6-methoxypyridin-3-yl)methyl)-6-methyl-3-(tetrahydro-2H-pyran-4-yl)imidazo[1,5-a]pyrazin-8(7H)-one] showed an IC50 [1] of 45 nM, an IC50 [2] of 26 nM and an IC50 [3] of 84 nM. For the same compound, the inhibition at 10 µM [4] was -5%.
In the case of `Cc1cccc(Cn2c(C)cn3c(C4CCOCC4)ncc3c2=O)c1` [Example 25, 6-Methyl-7-(3-methylbenzyl)-3-(tetrahydro-2H-pyran-4-yl)imidazo[1,5-a]pyrazin-8(7H)-one], the IC50 [1] is reported as 63 nM, the IC50 [2] is reported as 57 nM and the IC50 [3] is reported as 9 nM. It also gave an inhibition at 10 µM [4] of -42%.
Work on `Cc1cn2c(C3CCOCC3)ncc2c(=O)n1Cc1ccc(Cl)cc1` [Example 14, 7-(4-Chlorobenzyl)-6-methyl-3-(tetrahydro-2H-pyran-4-yl)imidazo[1,5-a]pyrazin-8(7H)-one] yielded an IC50 [1] of 18 nM, an IC50 [2] of 15 nM and an IC50 [3] of 51 nM. It also gave an inhibition at 10 µM [4] of 22%.
`Cc1cn2c([C@H]3CCOC3)ncc2c(=O)n1Cc1cccc(F)c1` (single isomer, unassigned; isomer 2) [31, isomer 2] showed an IC50 [1] of 347 nM, an IC50 [2] of 138 nM and an IC50 [3] of 31 nM. For the same compound, the “% inhibition of PDE9 at 10 microM” value [4] was 5%.
In the case of `Cc1noc(C)c1Cn1c(C)cn2c(C3CCOCC3)ncc2c1=O` [Example 81, 7-((3,5-dimethylisoxazol-4-yl)methyl)-6-methyl-3-(tetrahydro-2H-pyran-4-yl)imidazo[1,5-a]pyrazin-8(7H)-one], the inhibition at 10 µM [1] is reported as 27%, the inhibition at 10 µM ([2]; read-out: PDE1B, % inhibition (at 10 μM)) is reported as 36% and the IC50 [3] is reported as 2300 nM. The inhibition at 10 µM [4] was 36%.
`CO[C@H]1CC[C@@H](Cn2c(C)cn3c(C4CCOCC4)ncc3c2=O)CC1` [Example 67, 7-(((cis)-4-methoxycyclohexyl)methyl)-6-methyl-3-(tetrahydro-2H-pyran-4-yl)imidazo[1,5-a]pyrazin-8(7H)-one] gave an IC50 [1] of 234 nM, an IC50 [2] of 87 nM and an IC50 [3] of 307 nM. For the same compound, the inhibition at 10 µM [4] was 10%.
`Cc1cn2c(C3CCOCC3)ncc2c(=O)n1Cc1ccc(N)cc1` [Example 52, 7-(4-aminobenzyl)-6-methyl-3-(tetrahydro-2H-pyran-4-yl)imidazo[1,5-a]pyrazin-8(7H)-one] gave an inhibition at 1 µM [1] of 0%, an IC50 [2] of 388 nM and an inhibition at 1 µM [3] of 10%. For the same compound, the inhibition at 10 µM [4] was -3%.
